Measurements from patent US12435031B2, “Compound with broad-spectrum antibacterial activity and its antibacterial composition” (CHINA AGRICULTURAL UNIVERSITY, priority 2023, dated 2025).
Values after ≈ are worked out from the molar mass of the structure shown. Where two headings read alike, the source gives them in different places.

Experiments:
[1] = MIC against pathogenic fungi, Candida ATCC 6258; type: cell-based; conditions: Candida albicans ATCC 6258 (Candida krusei ATCC 6258)
[2] = test system: Trichophyton ATCC MTA-4439; test: MIC against pathogenic fungi, Trichophyton; type: cell-based
[3] = test system: Aspergillus niger ATCC 96918; test: MIC against pathogenic fungi, Aspergillus niger; type: cell-based; conditions: for MICs: Aspergillus niger ATCC 96918
[4] = test system: Aspergillus flavus ATCC 11492; test: MIC against pathogenic fungi, Aspergillus flavus; type: cell-based
[5] = test system: Clostridium perfringens; test: microbe, parasite or virus in culture; type: cell-based; conditions: read-out: MICs
[6] = test system: Staphylococcus aureus ATCC 25923; test: Growth curve (OD 600 nm, 24 h), Staphylococcus aureus; conditions: Staphylococcus aureus ATCC 25923, BAB159 at its MIC concentration, OD 600 nm over 24 hours
[7] = test system: Clostridium perfringens; test: microbe, parasite or virus in culture; type: cell-based; conditions: Clostridium perfringens
[8] = test system: Haemophilus; test: MIC, broth microdilution, Haemophilus; type: cell-based
[9] = test system: MRSA T144; conditions: C57BL/6J mice infected i.p. with MRSA T144, 10 mg/kg b.w. 1 hour after infection, within 3 days
[10] = test system: Streptococcus; test: microbe, parasite or virus in culture; type: cell-based; conditions: for MIC: read-out: MICs
[11] = Pharmacokinetics in rabbit plasma after intramuscular injection; type: in vivo, rabbits; conditions: for Cmax: 20 mg/kg
Description: In order to investigate the metabolic residues of BAB159 in model animals, rabbits were used as animal models to quantitatively analyze the levels of BAB159 in rabbit plasma. Male Chinese white rabbits weighing around 2 kg were adaptively fed for one week. Then, 2 mL of BAB159 suspension was injected into the left hind thigh muscle of the rabbits at a dose of 20 mg/kg b.w. Blood samples were collected from the ear vein at 8 time points, including 0.5, 1, 2, 4, 6, 8, 12, and 24 hours after administration. After pre-treatment of the plasma samples, UPLC-MS/MS detection was performed.

[12] = test system: Candida albicans, Aspergillus flavus, Aspergillus niger, and Trichophyton; test: MIC against common clinical pathogenic fungi (summary); type: cell-based; conditions: range over species
[13] = test system: Staphylococcus; test: microbe, parasite or virus in culture; type: cell-based; conditions: for MIC: read-out: MICs
[14] = test system: MRSA T144; conditions: BAB159 at its MIC concentration, OD 600 nm over 24 hours
[15] = test system: MRSA T144; conditions: Galleria mellonella infected with MRSA T144, 2 mg/kg b.w. 1 hour after infection, within 5 days
[16] = test system: Mycobacterium smegmatis; test: microbe, parasite or virus in culture; type: cell-based; conditions: Mycolicibacterium smegmatis, read-out: MICs
[17] = test system: Enterococcus; test: microbe, parasite or virus in culture; type: cell-based
[18] = test system: Bacillus; test: microbe, parasite or virus in culture; type: cell-based; conditions: for MIC: read-out: MICs
[19] = read-out: minimum inhibitory concentration (MIC50)
[20] = male, Chinese white, im, rabbit plasma, intramuscular injection, 20 mg/kg b.w.
[21] = male, Chinese white, rabbit, plasma, im, rabbits, intramuscular injection, 20 mg/kg b.w.

C[C@@H]1[C@H](O)[C@@H](C)/C=C/C=C/C=C/C=C/C=C/C=C/C=C/[C@H](O[C@@H]2O[C@H](C)[C@@H](O)[C@H](N)[C@@H]2O)C[C@@H]2O[C@](O)(C[C@@H](O)C[C@@H](O)[C@H](O)CC[C@@H](O)C[C@@H](O)CC(=O)O[C@H]1C)C[C@H](O)[C@H]2C(=O)O [Amphotericin B]
MICs [1]: 0.5 µg/mL
MICs ([2]; Trichophyton ATCC MTA-4439): 0.25 µg/mL
MICs [3]: 0.125 µg/mL
MICs [4]: 0.25 µg/mL

O=C(Nc1ccc(C(F)(F)F)c(Cl)c1Cl)c1cc(Cl)ccc1O [BAB159]
MIC ([1]; ATCC6258): 1 µg/mL (≈ 2.6 µM)
MIC [5]: 0.25 µg/mL (≈ 0.65 µM)
MIC ([2]; Trichophyton, read-out: MICs): 0.125 µg/mL (≈ 0.325 µM)
growth inhibition (growth curve) [6]: significantly inhibit the growth
MIC50 [7]: 0.25 µg/mL (≈ 0.65 µM)
MIC90 [7]: 0.5 µg/mL (≈ 1.3 µM)
MIC ([7]; read-out: MIC value against Clostridium perfringens, strain A3-1 (A-type)): 0.5 µg/mL (≈ 1.3 µM)
MIC ([7]; read-out: MIC value against Clostridium perfringens, strain A3-2 (A-type)): 0.25 µg/mL (≈ 0.65 µM)
MIC ([7]; read-out: MIC value against Clostridium perfringens, strain A57-1 (A-type)): 0.25 µg/mL (≈ 0.65 µM)
MIC ([7]; read-out: MIC value against Clostridium perfringens, strain B4 (B-type)): 0.5 µg/mL (≈ 1.3 µM)
MIC ([7]; read-out: MIC value against Clostridium perfringens, strain B5 (B-type)): 0.25 µg/mL (≈ 0.65 µM)
MIC ([7]; read-out: MIC value against Clostridium perfringens, strain C3 (C-type)): 0.5 µg/mL (≈ 1.3 µM)
MIC ([7]; read-out: MIC value against Clostridium perfringens, strain C8 (C-type)): 0.25 µg/mL (≈ 0.65 µM)
MIC ([7]; read-out: MIC value against Clostridium perfringens, strain C59-1 (C-type)): 0.25 µg/mL (≈ 0.65 µM)
MIC ([7]; read-out: MIC value against Clostridium perfringens, strain D14B (D-type)): 0.25 µg/mL (≈ 0.65 µM)
MIC ([7]; read-out: MIC value against Clostridium perfringens, strain F5-2 (F-type)): 0.25 µg/mL (≈ 0.65 µM)
MIC ([7]; read-out: MIC value against Clostridium perfringens, strain F6-1 (F-type)): 0.25 µg/mL (≈ 0.65 µM)
MIC ([7]; read-out: MIC value against Clostridium perfringens, strain F6-2 (F-type)): 0.5 µg/mL (≈ 1.3 µM)
MIC ([7]; read-out: MIC value against Clostridium perfringens, strain F6-2-1 (F-type)): 0.5 µg/mL (≈ 1.3 µM)
MIC ([7]; read-out: MIC value against Clostridium perfringens, strain F6-2-2 (F-type)): 0.25 µg/mL (≈ 0.65 µM)
MIC ([7]; read-out: MIC value against Clostridium perfringens, strain F7-1 (F-type)): 0.5 µg/mL (≈ 1.3 µM)
MIC ([7]; read-out: MIC value against Clostridium perfringens, strain F8-1 (F-type)): 0.5 µg/mL (≈ 1.3 µM)
MIC ([7]; read-out: MIC value against Clostridium perfringens, strain H12-1 (H-type)): 0.25 µg/mL (≈ 0.65 µM)
MIC ([7]; read-out: MIC value against Clostridium perfringens, strain H12-2 (H-type)): 0.25 µg/mL (≈ 0.65 µM)
MIC ([7]; read-out: MIC value against Clostridium perfringens, strain H13-1 (H-type)): 0.5 µg/mL (≈ 1.3 µM)
MIC ([7]; read-out: MIC value against Clostridium perfringens, strain H14-1 (H-type)): 0.5 µg/mL (≈ 1.3 µM)
MIC ([7]; read-out: MIC value against Clostridium perfringens, strain H14-2 (H-type)): 0.5 µg/mL (≈ 1.3 µM)
MIC ([7]; read-out: MIC value against Clostridium perfringens, strain H14-4 (H-type)): 0.5 µg/mL (≈ 1.3 µM)
MIC ([7]; read-out: MIC value against Clostridium perfringens, strain H15-1 (H-type)): 0.25 µg/mL (≈ 0.65 µM)
MIC ([7]; read-out: MIC value against Clostridium perfringens, strain H15-2 (H-type)): 0.5 µg/mL (≈ 1.3 µM)
MIC ([7]; read-out: MIC value against Clostridium perfringens, strain H15-3 (H-type)): 0.25 µg/mL (≈ 0.65 µM)
MIC ([7]; read-out: MIC value against Clostridium perfringens, strain H16 (H-type)): 0.25 µg/mL (≈ 0.65 µM)
MIC ([7]; read-out: highest MIC value, against 26 tested strains of Clostridium perfringens): 0.5 µg/mL (≈ 1.3 µM)
MICs [3]: 0.5 µg/mL
MIC ([3]; Aspergillus niger, ATCC96918, Aspergillus niger ATCC 96918): 0.25 µg/mL (≈ 0.65 µM)
MIC50 ([8]; Haemophilus, read-out: minimum inhibitory concentration (MIC50)): 16 µg/mL (≈ 41.6 µM)
MIC ([8]; gram-negative bacteria such as Haemophilus): 8 to 32 µg/mL (≈ 20.8 to 83.2 µM)
MIC ([4]; ATCC11492): 1 µg/mL (≈ 2.6 µM)
protective rate [9]: 100%
MIC [10]: 0.125 µg/mL (≈ 0.325 µM)
MIC50 [10, 19]: 0.125 µg/mL (≈ 0.325 µM)
AUIC ([11]; AUC after intramuscular injection in rabbits to MIC50 against Staphylococcus): 109
AUC [11, 20]: 1710 ng·h/mL
Tmax [11, 20]: 6 h
Cmax ([11]; male, Chinese white, rabbit, plasma, im, rabbit plasma, intramuscular injection, 20 mg/kg b.w., read-out: Cmax): 207 ng/mL
AUC(0-t) [11, 21]: 1640 ± 70.5 ng·h/mL
half-life [11, 21]: 16.1 ± 3.6 h
Cmax ([11]; rabbit plasma, intramuscular injection, 20 mg/kg b.w.): 148.2 ± 13.05 ng/mL
MIC [12]: 0.5 to 1 µg/mL (≈ 1.3 to 2.6 µM)
MIC50 ([13]; Staphylococcus): 0.0156 µg/mL (≈ 0.0406 µM)
MIC ([13]; Staphylococcus): 0.01 µg/mL (≈ 0.026 µM)
MIC50 [13, 19]: 0.01 µg/mL (≈ 0.026 µM)
growth inhibition (growth curve) [14]: significantly inhibit the growth
protective rate [15]: 70%
MIC [16]: 2 µg/mL (≈ 5.2 µM)
MIC ([17]; read-out: MICs): 0.25 µg/mL (≈ 0.65 µM)
MIC50 [17, 19]: 0.25 µg/mL (≈ 0.65 µM)
MIC [18]: 0.01 µg/mL (≈ 0.026 µM)
MIC50 [18, 19]: 0.01 µg/mL (≈ 0.026 µM)

CN[C@H](CC(C)C)C(=O)N[C@H]1C(=O)N[C@@H](CC(N)=O)C(=O)N[C@H]2C(=O)N[C@H]3C(=O)N[C@H](C(=O)N[C@H](C(=O)O)c4cc(O)cc(O)c4-c4cc3ccc4O)[C@H](O)c3ccc(c(Cl)c3)Oc3cc2cc(c3O[C@@H]2O[C@H](CO)[C@@H](O)[C@H](O)[C@H]2O[C@H]2C[C@](C)(N)[C@H](O)[C@H](C)O2)Oc2ccc(cc2Cl)[C@H]1O [VAN, Vancomycin]
MIC [5]: 0.5 µg/mL (≈ 0.345 µM)
MIC ([7]; read-out: MIC value against Clostridium perfringens): ≤ 0.25 µg/mL
MIC [10]: 0.25 µg/mL (≈ 0.173 µM)
MIC ([13]; Staphylococcus): 1 µg/mL (≈ 0.69 µM)
protective rate [15]: 40%
MIC [16]: 16 µg/mL (≈ 11 µM)
MIC [18]: 0.5 µg/mL (≈ 0.345 µM)
